The test system of one data set is male mice. The data set can be described thus: Forced swim test immobility time 24 h after i.p. treatment. Conditions: for Minimal effective dose to reduce immobility time in the forced swim test: 24 h after injection. Format: in vivo, mouse.
Data set [1] addresses N-methyl-D-aspartate receptor (NMDAR). Conditions: cited from earlier work.
Data set [2] can be described thus: Pharmacokinetic studies in plasma and brain of mice after i.p. injection. Format: in vivo, mouse. Conditions: for Cmax (mean ± SEM) Brain: normalized to free base dose; for Sex-dependent difference: Brain Total exposure (AUC) / Sex-dependent difference: Plasma Total exposure (AUC): standard t-test, F female, M male, NS not statistically different; for Brain level at 4 h post-treatment: LLOQ 5.0 ng/ml.

Where [3] appears, read: both sexes, i.p. 5 mg/kg, 10 min was the earliest time point.

Like-named read-outs stand apart in the source and are kept apart here.

For the compound `N[C@]1(c2ccccc2Cl)CCC[C@@H](O)C1=O` [(2S,6R)-HNK], the “Minimal effective dose to reduce immobility time in the forced swim test” value with male mice was 3 mg/kg. Further, in the data set with male mice (tested range up to 100 mg/kg), the “Shape of dose response curve for forced swim test immobility” value was “U-shaped dose response curves”. In addition, in data set [1] (read-out: NMDAR binding affinity, ref [31]), the Ki was greater than 100000 nM. Moreover, the “Cmax (mean ± SEM) Brain” value in data set [2] (female CD-1 mice, i.p. 5 mg/kg) worked out at 177 ± 19.8 ng/g•mg/kg. Moreover, in data set [2] (female mice, i.p. 5 mg/kg), the “B:P ratio (brain to plasma AUC ratio)” value came to 1.4, the “t1/2 Brain (terminal half-life)” value came out at 45 min and the “t1/2 Plasma (terminal half-life)” value is 47 min. Besides, the “Brain Cmax and AUC compared to equivalent dosing with (2R,6R)-HNK” value in data set [2] (from Table 1) is “approximately three-fold lower”. Also, the “Cmax (mean ± SEM) Brain” value in data set [2] (male CD-1 mice, i.p. 5 mg/kg) was found to be 117 ± 30.6 ng/g•mg/kg. In data set [2] (male mice, i.p. 5 mg/kg), the “B:P ratio (brain to plasma AUC ratio)” value was determined as 1.2, the “t1/2 Brain (terminal half-life)” value was 45 min and the “t1/2 Plasma (terminal half-life)” value is 45 min. In data set [2], the “Sex-dependent difference: Brain Total exposure (AUC)” value was “F > M” and the “Sex-dependent difference: Plasma Total exposure (AUC)” value is “F > M”.

As for `N[C@]1(c2ccccc2Cl)C[C@@H](O)CCC1=O` [(2S,4S)-HNK], the “Cmax (mean ± SEM) Brain” value in data set [2] (female CD-1 mice, i.p. 5 mg/kg) is reported as 234 ± 10.9 ng/g•mg/kg. Also, in data set [2] (female mice, i.p. 5 mg/kg), the “B:P ratio (brain to plasma AUC ratio)” value worked out at 0.9, the “t1/2 Brain (terminal half-life)” value was found to be 35 min and the “t1/2 Plasma (terminal half-life)” value is on record as 42 min. The “Cmax (mean ± SEM) Brain” value in data set [2] (male CD-1 mice, i.p. 5 mg/kg) worked out at 127 ± 9.5 ng/g•mg/kg. Moreover, in data set [2] (male mice, i.p. 5 mg/kg), the “B:P ratio (brain to plasma AUC ratio)” value worked out at 0.7, the “t1/2 Brain (terminal half-life)” value was determined as 34 min and the “t1/2 Plasma (terminal half-life)” value is 39 min. In data set [2], the “Sex-dependent difference: Brain Total exposure (AUC)” value is listed as “F > M” and the “Sex-dependent difference: Plasma Total exposure (AUC)” value was “F > M”.

As to `N[C@@]1(c2ccccc2Cl)CC[C@@H](O)CC1=O` [(2R,5R)-HNK], the “Cmax (mean ± SEM) Brain” value in data set [2] (female CD-1 mice, i.p. 5 mg/kg) is 152 ± 8.8 ng/g•mg/kg. In addition, in data set [2] (female mice, i.p. 5 mg/kg), the “B:P ratio (brain to plasma AUC ratio)” value is 1.4, the “t1/2 Brain (terminal half-life)” value stood at 28 min and the “t1/2 Plasma (terminal half-life)” value is 31 min. For the same compound, the “Cmax (mean ± SEM) Brain” value in data set [2] (male CD-1 mice, i.p. 5 mg/kg) is given as 142 ± 5.6 ng/g•mg/kg. Besides, in data set [2] (male mice, i.p. 5 mg/kg), the “B:P ratio (brain to plasma AUC ratio)” value stood at 1.2, the “t1/2 Brain (terminal half-life)” value is listed as 27 min and the “t1/2 Plasma (terminal half-life)” value amounted to 30 min. For the same compound, in data set [2], the “Sex-dependent difference: Plasma Total exposure (AUC)” value is “M > F”.

As for `C[C@@H]1CC[C@@](N)(c2ccccc2Cl)C(=O)[C@@H]1O` [(5R)-methyl-(2R,6R)-HNK, (5R)-methyl-(2R,6R)-hydroxynorketamine], the “Minimal effective dose to reduce immobility time in the forced swim test” value with male mice is 1 mg/kg. For the same compound, in the data set on male mice (24 h after treatment), the “Doses at which immobility time was reduced relative to vehicle” value was in the range of 1 to 10 mg/kg. Besides, in data set [2] (both sexes, i.p. 5 mg/kg), the “Brain to plasma AUC ratio” value stood at 0.4 and the Plasma elimination half-life is given as 49 min. In data set [2] (setting [3]), the Tmax brain is given as 10 min and the “Tmax plasma (time of observed maximal concentrations)” value is listed as 10 min. For the same compound, in data set [2] (female CD-1 mice, i.p. 5 mg/kg), the “Cmax (mean ± SEM) Brain” value was determined as 352 ± 22.4 ng/g•mg/kg. In data set [2] (female mice, i.p. 5 mg/kg), the “B:P ratio (brain to plasma AUC ratio)” value turned out to be 0.4, the “t1/2 Brain (terminal half-life)” value turned out to be 41 min and the “t1/2 Plasma (terminal half-life)” value worked out at 49 min. Moreover, the “Cmax (mean ± SEM) Brain” value in data set [2] (male CD-1 mice, i.p. 5 mg/kg) amounted to 324 ± 13.0 ng/g•mg/kg. Moreover, in data set [2] (male mice, i.p. 5 mg/kg), the “B:P ratio (brain to plasma AUC ratio)” value is on record as 0.4, the “t1/2 Brain (terminal half-life)” value was 48 min and the “t1/2 Plasma (terminal half-life)” value was found to be 49 min. Further, in data set [2], the “Sex-dependent difference: Brain Total exposure (AUC)” value is “M > F” and the “Sex-dependent difference: Plasma Total exposure (AUC)” value is “M > F”.

As for `N[C@]1(c2ccccc2Cl)C[C@H](O)CCC1=O` [(2S,4R)-HNK], the “Brain level at 4 h post-treatment” value in data set [2] (both sexes, i.p. 5 mg/kg) was “below LLOQs”. Besides, the “Cmax (mean ± SEM) Brain” value in data set [2] (female CD-1 mice, i.p. 5 mg/kg) worked out at 190± 13.7 ng/g•mg/kg; in data set [2] (male CD-1 mice, i.p. 5 mg/kg), 160 ± 10.2 ng/g•mg/kg. Moreover, the “B:P ratio (brain to plasma AUC ratio)” value in data set [2] (female mice, i.p. 5 mg/kg) is on record as 1.0; in data set [2] (male mice, i.p. 5 mg/kg), 0.9. In addition, the “t1/2 Brain (terminal half-life)” value came out at 21 min in data set [2] (female mice, i.p. 5 mg/kg) and 23 min in data set [2] (male mice, i.p. 5 mg/kg). Further, the “t1/2 Plasma (terminal half-life)” value in data set [2] (female mice, i.p. 5 mg/kg) is reported as 47 min; in data set [2] (male mice, i.p. 5 mg/kg), 48 min.

As for `N[C@@]1(c2ccccc2Cl)C[C@H](O)CCC1=O` [(2R,4R)-HNK], the “Cmax (mean ± SEM) Brain” value in data set [2] (female CD-1 mice, i.p. 5 mg/kg) stood at 490 ± 26.4 ng/g•mg/kg. Also, in data set [2] (female mice, i.p. 5 mg/kg), the “B:P ratio (brain to plasma AUC ratio)” value was found to be 1.2, the “t1/2 Brain (terminal half-life)” value is 29 min and the “t1/2 Plasma (terminal half-life)” value stood at 29 min. Moreover, in data set [2] (male CD-1 mice, i.p. 5 mg/kg), the “Cmax (mean ± SEM) Brain” value came out at 431 ± 43.5 ng/g•mg/kg. For the same compound, in data set [2] (male mice, i.p. 5 mg/kg), the “B:P ratio (brain to plasma AUC ratio)” value is recorded as 1.3, the “t1/2 Brain (terminal half-life)” value came to 38 min and the “t1/2 Plasma (terminal half-life)” value is given as 35 min. Besides, in data set [2], the “Sex-dependent difference: Brain Total exposure (AUC)” value is listed as “M > F” and the “Sex-dependent difference: Plasma Total exposure (AUC)” value is listed as “M > F”.

For the compound `N[C@]1(c2ccccc2Cl)CC[C@@H](O)CC1=O` [(2S,5R)-HNK], in data set [2] (female CD-1 mice, i.p. 5 mg/kg), the “Cmax (mean ± SEM) Brain” value was 258 ± 15.4 ng/g•mg/kg. Besides, in data set [2] (female mice, i.p. 5 mg/kg), the “B:P ratio (brain to plasma AUC ratio)” value was determined as 1.0, the “t1/2 Brain (terminal half-life)” value is listed as 31 min and the “t1/2 Plasma (terminal half-life)” value worked out at 28 min. Besides, the “Cmax (mean ± SEM) Brain” value in data set [2] (male CD-1 mice, i.p. 5 mg/kg) is 242 ± 9.8 ng/g•mg/kg. Also, in data set [2] (male mice, i.p. 5 mg/kg), the “B:P ratio (brain to plasma AUC ratio)” value was found to be 0.7, the Tmax brain came out at 30 min, the “t1/2 Brain (terminal half-life)” value is reported as 40 min and the “t1/2 Plasma (terminal half-life)” value came out at 37 min. Also, in data set [2], the “Sex-dependent difference: Brain Total exposure (AUC)” value is “M > F” and the “Sex-dependent difference: Plasma Total exposure (AUC)” value is listed as “M > F”.

For the compound `N[C@]1(c2ccccc2Cl)CC[C@H](O)CC1=O` [(2S,5S)-HNK], the “Brain level at 4 h post-treatment” value in data set [2] (both sexes, i.p. 5 mg/kg) is listed as “below LLOQs”. The “Cmax (mean ± SEM) Brain” value in data set [2] (female CD-1 mice, i.p. 5 mg/kg) is 129 ± 2.8 ng/g•mg/kg. In data set [2] (female mice, i.p. 5 mg/kg), the “B:P ratio (brain to plasma AUC ratio)” value came to 1.3, the “t1/2 Brain (terminal half-life)” value is reported as 17 min and the “t1/2 Plasma (terminal half-life)” value came to 34 min. In addition, the “Cmax (mean ± SEM) Brain” value in data set [2] (male CD-1 mice, i.p. 5 mg/kg) was 138 ± 8.3 ng/g•mg/kg. In data set [2] (male mice, i.p. 5 mg/kg), the “B:P ratio (brain to plasma AUC ratio)” value is listed as 1.2, the “t1/2 Brain (terminal half-life)” value is listed as 16 min and the “t1/2 Plasma (terminal half-life)” value is recorded as 27 min.

As for `CNC1(c2ccccc2Cl)CCCCC1=O` (centres unmarked) [ketamine, reference compound], the Ki in data set [1] (read-out: Ki, inhibitory actions on NMDARs, ref [19],[31],[32]) is 250 to 1060 nM.

On to `N[C@@]1(c2ccccc2Cl)CC[C@H](O)CC1=O` [(2R,5S)-HNK], for which the “Cmax (mean ± SEM) Brain” value in data set [2] (female CD-1 mice, i.p. 5 mg/kg) stood at 154 ± 3.9 ng/g•mg/kg. Also, in data set [2] (female mice, i.p. 5 mg/kg), the “B:P ratio (brain to plasma AUC ratio)” value was 1.0, the “t1/2 Brain (terminal half-life)” value stood at 27 min and the “t1/2 Plasma (terminal half-life)” value was 29 min. The “Cmax (mean ± SEM) Brain” value in data set [2] (male CD-1 mice, i.p. 5 mg/kg) is given as 106 ± 6.8 ng/g•mg/kg. Further, in data set [2] (male mice, i.p. 5 mg/kg), the “B:P ratio (brain to plasma AUC ratio)” value stood at 0.9, the “t1/2 Brain (terminal half-life)” value is 27 min and the “t1/2 Plasma (terminal half-life)” value is reported as 28 min. Further, in data set [2], the “Sex-dependent difference: Brain Total exposure (AUC)” value was “F > M” and the “Sex-dependent difference: Plasma Total exposure (AUC)” value is given as “F > M”.

Take `N[C@@]1(c2ccccc2Cl)C[C@@H](O)CCC1=O` [(2R,4S)-HNK]: the “Cmax (mean ± SEM) Brain” value in data set [2] (female CD-1 mice, i.p. 5 mg/kg) is 495 ± 28.7 ng/g•mg/kg. Besides, in data set [2] (female mice, i.p. 5 mg/kg), the “B:P ratio (brain to plasma AUC ratio)” value stood at 1.0, the “t1/2 Brain (terminal half-life)” value stood at 15 min and the “t1/2 Plasma (terminal half-life)” value turned out to be 44 min. In data set [2] (females, but not males, i.p. 5 mg/kg), the “Brain level at 4 h post-treatment” value was “below LLOQs”. Further, the “Cmax (mean ± SEM) Brain” value in data set [2] (male CD-1 mice, i.p. 5 mg/kg) stood at 758 ± 21.4 ng/g•mg/kg. In data set [2] (male mice, i.p. 5 mg/kg), the “B:P ratio (brain to plasma AUC ratio)” value is 1.1, the “t1/2 Brain (terminal half-life)” value is on record as 32 min and the “t1/2 Plasma (terminal half-life)” value is reported as 39 min. In addition, in data set [2], the “Sex-dependent difference: Brain Total exposure (AUC)” value was “M > F” and the “Sex-dependent difference: Plasma Total exposure (AUC)” value was “M > F”.

The values are drawn from publication PMC9926475 (ACS chemical neuroscience, 2022).
